We go through seven molecules from ChEMBL document CHEMBL4400520, “Benzofuran-isatin-imine hybrids tethered via different length alkyl linkers: Design, synthesis and in vitro evaluation of anti-tubercular and anti-bacterial activities as well as cytotoxicity” (Eur J Med Chem, 2019).

Each structure is given as a SMILES string. Converted amounts (≈) assume the structure as drawn.

For one data set, the system named is Enterococcus faecalis. As to the kind of experiment: Antibacterial activity against Enterococcus faecalis. It is filed as functional.
Data set [1] has as its system Staphylococcus epidermidis. As to the kind of experiment: Antibacterial activity against methicillin-sensitive Staphylococcus epidermidis. The data set is classed as functional.
For another data set, the system named is Enterococcus faecium. Nature of the data set: Antibacterial activity against Enterococcus faecium. It is filed as functional.
For data set [2], the system named is Staphylococcus aureus. As to the kind of experiment: Antibacterial activity against methicillin-sensitive Staphylococcus aureus. The data set is classed as functional.
For a further data set, the system named is Klebsiella pneumoniae. As to the kind of experiment: Antibacterial activity against Klebsiella pneumoniae. The data set is classed as functional.
The next data set relates to Enterobacter cloacae. Nature of the data set: Antibacterial activity against Enterobacter cloacae. The data set is classed as functional.
For data set [3], the system named is Staphylococcus aureus. Nature of the data set: Antibacterial activity against methicillin-resistant Staphylococcus aureus. It is filed as functional.
The test system of another data set is Klebsiella aerogenes. Nature of the data set: Antibacterial activity against Enterobacter aerogenes. It is filed as functional.
Data set [4] has as its system Acinetobacter calcoaceticus. Nature of the data set: Antibacterial activity against Acinetobacter calcoaceticus. It is filed as functional.
The test system of another data set is Proteus mirabilis. As to the kind of experiment: Antibacterial activity against Proteus mirabilis. The data set is classed as functional.
In data set [5] the test system is Mycobacterium tuberculosis. Nature of the data set: Antitubercular activity against Mycobacterium tuberculosis H37Rv. It is filed as functional.
For the next data set, the system named is Pseudomonas aeruginosa. Nature of the data set: Antibacterial activity against Pseudomonas aeruginosa ATCC 27853. The data set is classed as functional.
A short description of data set [6]: Selectivity index, ratio of CC50 for African green monkey Vero cells to MIC for Mycobacterium tuberculosis H37Rv. It is filed as toxicity. The note with it: read-out: Selectivity Index.
The test system of data set [7] is Staphylococcus epidermidis. Nature of the data set: Antibacterial activity against methicillin-resistant Staphylococcus epidermidis. It is filed as functional.
A further data set has as its system Escherichia coli. As to the kind of experiment: Antibacterial activity against Escherichia coli. The data set is classed as functional.
Data set [8] in a line: Cytotoxicity against African green monkey Vero cells assessed as reduction in cell viability after 72 hrs by MTT assay. The note with it: chlorocebus sabaeus, Vero cells. It is filed as cell-based.
In the next data set the test system is Citrobacter freundii. Nature of the data set: Antibacterial activity against Citrobacter freundii. The data set is classed as functional.

For `CCO/N=C1\C(=O)N(CCCCOc2ccc3oc(-c4ccc(OC)cc4)c(C(=O)OCC)c3c2)c2ccccc21`, the MIC90 in the data set with Enterococcus faecalis is 4 µg/mL (≈ 7.19 µM); in data set [1], 0.5 µg/mL (≈ 0.898 µM); against Enterococcus faecium, 64 µg/mL (≈ 115 µM); against Staphylococcus aureus [2] it was 1 µg/mL (≈ 1.8 µM); against Klebsiella pneumoniae, 2 µg/mL (≈ 3.59 µM); in the data set on Enterobacter cloacae, 1 µg/mL (≈ 1.8 µM). Moreover, the MIC90 with Staphylococcus aureus [3] is 1 µg/mL (≈ 1.8 µM); with Klebsiella aerogenes, 2 µg/mL (≈ 3.59 µM); in data set [4], 0.5 µg/mL (≈ 0.898 µM); in the data set on Proteus mirabilis, 2 µg/mL (≈ 3.59 µM); with Pseudomonas aeruginosa, 2 µg/mL (≈ 3.59 µM); in data set [7], 2 µg/mL (≈ 3.59 µM). The figures for the MIC90 in the data set on Escherichia coli and in the data set with Citrobacter freundii were 1 µg/mL (≈ 1.8 µM) and 2 µg/mL (≈ 3.59 µM), respectively. The MIC in [5] was below 0.016 µg/mL. Further, the selectivity ratio in data set [6] is above 4000. For the same molecule, the CC50 at 72 h in data set [8] stood at 64 µg/mL (≈ 115 µM).

On to `CCOC(=O)c1c(-c2ccc(OC)cc2)oc2ccc(OCCCCCN3C(=O)/C(=N\OC)c4ccccc43)cc12`, for which the MIC90 turned out to be 4 µg/mL (≈ 7.19 µM) against Enterococcus faecalis; 0.5 µg/mL (≈ 0.898 µM) in data set [1]; 32 µg/mL (≈ 57.5 µM) against Enterococcus faecium; 2 µg/mL (≈ 3.59 µM) in the data set with Staphylococcus aureus [2]; 2 µg/mL (≈ 3.59 µM) in the data set with Klebsiella pneumoniae; 0.25 µg/mL (≈ 0.449 µM) in the data set on Enterobacter cloacae. For the same molecule, the MIC90 against Staphylococcus aureus [3] is 4 µg/mL (≈ 7.19 µM); with Klebsiella aerogenes, 1 µg/mL (≈ 1.8 µM); in data set [4], 1 µg/mL (≈ 1.8 µM); against Proteus mirabilis, 0.5 µg/mL (≈ 0.898 µM); against Pseudomonas aeruginosa it was 1 µg/mL (≈ 1.8 µM); in [7], 4 µg/mL (≈ 7.19 µM). The MIC90 was determined as 0.25 µg/mL (≈ 0.449 µM) in the data set on Escherichia coli and 1 µg/mL (≈ 1.8 µM) in the data set on Citrobacter freundii. The MIC in [5] amounted to 0.049 µg/mL (≈ 0.088 µM). In addition, the selectivity ratio in data set [6] was determined as 1030. Further, in [8], the CC50 at 72 h stood at 32 µg/mL (≈ 57.5 µM).

In the case of `CCOC(=O)c1c(-c2ccc(OC)cc2)oc2ccc(OCCCCCCN3C(=O)C(=O)c4cc(F)ccc43)cc12`, the MIC90 came out at 2 µg/mL (≈ 3.57 µM) in the data set on Enterococcus faecalis; 1 µg/mL (≈ 1.79 µM) in [1]; 16 µg/mL (≈ 28.6 µM) with Enterococcus faecium; 2 µg/mL (≈ 3.57 µM) against Staphylococcus aureus [2]; 1 µg/mL (≈ 1.79 µM) against Klebsiella pneumoniae; 0.5 µg/mL (≈ 0.894 µM) against Enterobacter cloacae. Moreover, the MIC90 against Staphylococcus aureus [3] is 2 µg/mL (≈ 3.57 µM); in the data set with Klebsiella aerogenes, 0.25 µg/mL (≈ 0.447 µM); in [4] it was 4 µg/mL (≈ 7.15 µM); in the data set on Proteus mirabilis, 0.125 µg/mL (≈ 0.223 µM); against Pseudomonas aeruginosa it was 4 µg/mL (≈ 7.15 µM); in data set [7], 8 µg/mL (≈ 14.3 µM). The MIC90 against Escherichia coli worked out at 0.125 µg/mL (≈ 0.223 µM); with Citrobacter freundii, 1 µg/mL (≈ 1.79 µM). Besides, the MIC in data set [5] is below 0.016 µg/mL. Also, in data set [6], the selectivity ratio is above 64000. Moreover, in data set [8], the cytotoxic concentration (CC50) at 72 h was 1020 µg/mL (≈ 1830 µM).

With `CCOC(=O)c1c(-c2ccc(OC)cc2)oc2ccc(OCCCCN3C(=O)/C(=N\OC)c4cc(F)ccc43)cc12`, the MIC90 was 2 µg/mL (≈ 3.57 µM) against Enterococcus faecalis; 0.5 µg/mL (≈ 0.892 µM) in [1]; 16 µg/mL (≈ 28.5 µM) in the data set with Enterococcus faecium; 1 µg/mL (≈ 1.78 µM) with Staphylococcus aureus [2]; 2 µg/mL (≈ 3.57 µM) in the data set on Klebsiella pneumoniae; 0.5 µg/mL (≈ 0.892 µM) in the data set with Enterobacter cloacae. Also, the MIC90 was 4 µg/mL (≈ 7.14 µM) against Staphylococcus aureus [3]; 0.5 µg/mL (≈ 0.892 µM) with Klebsiella aerogenes; 4 µg/mL (≈ 7.14 µM) in data set [4]; 0.25 µg/mL (≈ 0.446 µM) in the data set on Proteus mirabilis; 8 µg/mL (≈ 14.3 µM) with Pseudomonas aeruginosa; 2 µg/mL (≈ 3.57 µM) in data set [7]. Also, the MIC90 with Escherichia coli and with Citrobacter freundii was 0.25 µg/mL (≈ 0.446 µM) each time. Further, the MIC in data set [5] amounted to 0.031 µg/mL (≈ 0.0553 µM). Further, the selectivity ratio in [6] was found to be 1030. In data set [8], the CC50 at 72 h came out at 32 µg/mL (≈ 57.1 µM).

`CCOC(=O)c1c(-c2ccc(OC)cc2)oc2ccc(OCCCCCCN3C(=O)C(=O)c4ccccc43)cc12`: the MIC90 in the data set with Enterococcus faecalis was 2 µg/mL (≈ 3.69 µM); in [1] it was 0.25 µg/mL (≈ 0.462 µM); against Enterococcus faecium it was 8 µg/mL (≈ 14.8 µM); with Staphylococcus aureus [2], 1 µg/mL (≈ 1.85 µM); against Klebsiella pneumoniae it was 0.5 µg/mL (≈ 0.923 µM); in the data set on Enterobacter cloacae, 0.125 µg/mL (≈ 0.231 µM). Further, the MIC90 was 1 µg/mL (≈ 1.85 µM) against Staphylococcus aureus [3]; 0.5 µg/mL (≈ 0.923 µM) against Klebsiella aerogenes; 2 µg/mL (≈ 3.69 µM) in [4]; 0.125 µg/mL (≈ 0.231 µM) against Proteus mirabilis; 4 µg/mL (≈ 7.39 µM) in the data set with Pseudomonas aeruginosa; 4 µg/mL (≈ 7.39 µM) in data set [7]. In addition, the MIC90 in the data set with Escherichia coli worked out at 0.06 µg/mL (≈ 0.111 µM); against Citrobacter freundii, 0.25 µg/mL (≈ 0.462 µM). Also, the MIC in data set [5] amounted to 0.062 µg/mL (≈ 0.114 µM). Also, the selectivity ratio in data set [6] is 4130. In data set [8], the cytotoxic concentration (CC50) at 72 h turned out to be 256 µg/mL (≈ 473 µM).

`CO[C@H]1/C=C/O[C@@]2(C)Oc3c(C)c(O)c4c(O)c(c(/C=N/N5CCN(C)CC5)c(O)c4c3C2=O)NC(=O)/C(C)=C\C=C\[C@H](C)[C@H](O)[C@@H](C)[C@@H](O)[C@@H](C)[C@H](OC(C)=O)[C@@H]1C` [RIFAMPIN] displayed an MIC in [5] of 0.078 µg/mL (≈ 0.0948 µM). For the same molecule, in data set [6], the selectivity ratio stood at 6560.

In the case of `CN[C@H](CC(C)C)C(=O)N[C@H]1C(=O)N[C@@H](CC(N)=O)C(=O)N[C@H]2C(=O)N[C@H]3C(=O)N[C@H](C(=O)N[C@H](C(=O)O)c4cc(O)cc(O)c4-c4cc3ccc4O)[C@H](O)c3ccc(c(Cl)c3)Oc3cc2cc(c3O[C@@H]2O[C@H](CO)[C@@H](O)[C@H](O)[C@H]2O[C@H]2C[C@](C)(N)[C@H](O)[C@H](C)O2)Oc2ccc(cc2Cl)[C@H]1O` [VANCOMYCIN], the MIC90 against Enterococcus faecalis is 4 µg/mL (≈ 2.76 µM); in data set [1] it was 1 µg/mL (≈ 0.69 µM); with Enterococcus faecium, 1 µg/mL (≈ 0.69 µM); against Staphylococcus aureus [2], 0.5 µg/mL (≈ 0.345 µM); with Staphylococcus aureus [3], 1 µg/mL (≈ 0.69 µM); in [7], 1 µg/mL (≈ 0.69 µM).
